Reference: patent publication US6248739A, “Quinolinecarboxamides as antiviral agents” (Pharmacia & Upjohn Company, priority 1999, dated 2001)
Read-outs that look alike come from different tables or passages of the source. Each block holds one molecule with its values, some of them ahead of it.

Legend:
HSV polymerase = HSV polymerase (Human herpesvirus 1, UniProt P04293); experiment: HSV polymerase assay (Table 1); format: biochemical
HCMV polymerase = biological target: T1, HCMV polymerase (Human cytomegalovirus, UniProt P08546); experiment: biochemical
T1 construct: made in house; host or cells: recombinant baculovirus-infected SF-9 insect cells
T1 sequence (P08546 whole entry): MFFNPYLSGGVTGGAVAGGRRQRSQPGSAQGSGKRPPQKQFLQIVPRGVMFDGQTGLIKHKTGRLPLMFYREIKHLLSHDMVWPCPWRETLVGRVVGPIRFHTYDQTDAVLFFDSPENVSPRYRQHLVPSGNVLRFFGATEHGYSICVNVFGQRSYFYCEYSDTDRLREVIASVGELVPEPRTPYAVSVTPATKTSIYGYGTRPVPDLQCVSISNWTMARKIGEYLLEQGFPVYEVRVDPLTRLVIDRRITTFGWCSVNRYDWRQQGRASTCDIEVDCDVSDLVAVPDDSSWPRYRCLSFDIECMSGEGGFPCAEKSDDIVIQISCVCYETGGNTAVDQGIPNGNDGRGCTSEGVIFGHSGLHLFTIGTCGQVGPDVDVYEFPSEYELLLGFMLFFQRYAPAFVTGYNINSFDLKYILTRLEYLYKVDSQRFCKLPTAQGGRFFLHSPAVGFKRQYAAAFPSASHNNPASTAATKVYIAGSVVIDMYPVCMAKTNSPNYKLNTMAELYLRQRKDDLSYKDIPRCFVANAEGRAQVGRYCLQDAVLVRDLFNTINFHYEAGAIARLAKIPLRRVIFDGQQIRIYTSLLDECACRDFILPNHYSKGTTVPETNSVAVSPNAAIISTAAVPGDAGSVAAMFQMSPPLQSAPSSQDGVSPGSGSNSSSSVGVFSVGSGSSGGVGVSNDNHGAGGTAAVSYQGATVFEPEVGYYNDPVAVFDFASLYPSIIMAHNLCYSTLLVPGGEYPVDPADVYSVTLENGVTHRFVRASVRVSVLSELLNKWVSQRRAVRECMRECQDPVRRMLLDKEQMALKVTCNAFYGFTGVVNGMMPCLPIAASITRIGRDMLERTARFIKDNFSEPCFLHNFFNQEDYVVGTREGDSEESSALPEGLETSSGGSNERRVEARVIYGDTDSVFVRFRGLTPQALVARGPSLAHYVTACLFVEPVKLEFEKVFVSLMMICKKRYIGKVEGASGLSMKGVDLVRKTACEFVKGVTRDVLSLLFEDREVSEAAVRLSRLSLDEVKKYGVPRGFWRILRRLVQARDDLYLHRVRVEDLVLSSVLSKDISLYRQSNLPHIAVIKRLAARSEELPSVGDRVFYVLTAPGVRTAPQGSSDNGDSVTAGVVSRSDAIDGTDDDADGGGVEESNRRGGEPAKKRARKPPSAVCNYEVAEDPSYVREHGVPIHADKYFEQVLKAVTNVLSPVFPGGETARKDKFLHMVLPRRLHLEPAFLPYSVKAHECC
Procedure, shortened: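 Scintillation proximity assay with baculovirus/SF-9-expressed HCMV polymerase, 90 nM ³H-dTTP and 6 nM biotinylated poly(dA)-oligo(dT) in HEPES pH 7.5/KCl/MgCl2/BSA, ±2 mM CHAPS, 25 or 37 °C, 30 min for HCMV. Modified version: compounds diluted in 100% DMSO, 4.5 mM DTT added. IC50 from linear regression.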

VZV polymerase = VZV polymerase (Varicella-zoster virus, UniProt P09252); experiment: VZV polymerase assay (Table 1); format: biochemical
Sequence of VZV polymerase (P09252 whole entry): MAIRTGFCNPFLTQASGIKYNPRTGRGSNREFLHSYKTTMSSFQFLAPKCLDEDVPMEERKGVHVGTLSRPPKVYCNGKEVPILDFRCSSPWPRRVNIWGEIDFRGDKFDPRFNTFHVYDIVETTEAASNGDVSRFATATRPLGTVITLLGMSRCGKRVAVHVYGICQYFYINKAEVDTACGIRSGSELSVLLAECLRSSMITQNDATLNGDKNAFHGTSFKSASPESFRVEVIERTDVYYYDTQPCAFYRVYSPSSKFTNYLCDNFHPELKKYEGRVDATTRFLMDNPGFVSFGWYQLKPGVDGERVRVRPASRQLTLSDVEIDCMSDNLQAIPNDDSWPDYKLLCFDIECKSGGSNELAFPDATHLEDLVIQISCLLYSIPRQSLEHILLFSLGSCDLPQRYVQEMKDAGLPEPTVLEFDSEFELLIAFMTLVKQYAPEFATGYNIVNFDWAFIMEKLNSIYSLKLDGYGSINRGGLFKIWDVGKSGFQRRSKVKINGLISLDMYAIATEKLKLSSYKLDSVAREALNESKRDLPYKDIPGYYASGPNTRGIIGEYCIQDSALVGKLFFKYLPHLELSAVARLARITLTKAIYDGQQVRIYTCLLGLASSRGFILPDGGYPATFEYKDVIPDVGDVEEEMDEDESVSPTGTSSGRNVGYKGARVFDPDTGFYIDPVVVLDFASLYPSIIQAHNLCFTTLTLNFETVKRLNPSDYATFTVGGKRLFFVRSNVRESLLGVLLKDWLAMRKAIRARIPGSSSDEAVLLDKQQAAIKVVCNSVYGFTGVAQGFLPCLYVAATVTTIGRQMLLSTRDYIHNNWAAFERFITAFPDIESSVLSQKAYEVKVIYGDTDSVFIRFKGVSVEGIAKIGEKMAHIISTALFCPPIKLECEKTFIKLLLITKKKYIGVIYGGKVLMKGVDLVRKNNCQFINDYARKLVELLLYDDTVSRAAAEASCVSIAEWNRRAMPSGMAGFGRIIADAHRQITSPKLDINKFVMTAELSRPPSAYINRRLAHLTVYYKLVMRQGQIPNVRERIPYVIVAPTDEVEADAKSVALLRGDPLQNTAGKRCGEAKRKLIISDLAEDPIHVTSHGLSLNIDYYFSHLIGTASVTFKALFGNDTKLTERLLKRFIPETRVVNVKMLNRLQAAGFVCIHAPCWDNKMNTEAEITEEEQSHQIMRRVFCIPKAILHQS

[1] = HCMV polymerase, SPA, modified assay: compounds in 100% DMSO, 4.5 mM DTT

Sequence of HSV polymerase (P04293 whole entry): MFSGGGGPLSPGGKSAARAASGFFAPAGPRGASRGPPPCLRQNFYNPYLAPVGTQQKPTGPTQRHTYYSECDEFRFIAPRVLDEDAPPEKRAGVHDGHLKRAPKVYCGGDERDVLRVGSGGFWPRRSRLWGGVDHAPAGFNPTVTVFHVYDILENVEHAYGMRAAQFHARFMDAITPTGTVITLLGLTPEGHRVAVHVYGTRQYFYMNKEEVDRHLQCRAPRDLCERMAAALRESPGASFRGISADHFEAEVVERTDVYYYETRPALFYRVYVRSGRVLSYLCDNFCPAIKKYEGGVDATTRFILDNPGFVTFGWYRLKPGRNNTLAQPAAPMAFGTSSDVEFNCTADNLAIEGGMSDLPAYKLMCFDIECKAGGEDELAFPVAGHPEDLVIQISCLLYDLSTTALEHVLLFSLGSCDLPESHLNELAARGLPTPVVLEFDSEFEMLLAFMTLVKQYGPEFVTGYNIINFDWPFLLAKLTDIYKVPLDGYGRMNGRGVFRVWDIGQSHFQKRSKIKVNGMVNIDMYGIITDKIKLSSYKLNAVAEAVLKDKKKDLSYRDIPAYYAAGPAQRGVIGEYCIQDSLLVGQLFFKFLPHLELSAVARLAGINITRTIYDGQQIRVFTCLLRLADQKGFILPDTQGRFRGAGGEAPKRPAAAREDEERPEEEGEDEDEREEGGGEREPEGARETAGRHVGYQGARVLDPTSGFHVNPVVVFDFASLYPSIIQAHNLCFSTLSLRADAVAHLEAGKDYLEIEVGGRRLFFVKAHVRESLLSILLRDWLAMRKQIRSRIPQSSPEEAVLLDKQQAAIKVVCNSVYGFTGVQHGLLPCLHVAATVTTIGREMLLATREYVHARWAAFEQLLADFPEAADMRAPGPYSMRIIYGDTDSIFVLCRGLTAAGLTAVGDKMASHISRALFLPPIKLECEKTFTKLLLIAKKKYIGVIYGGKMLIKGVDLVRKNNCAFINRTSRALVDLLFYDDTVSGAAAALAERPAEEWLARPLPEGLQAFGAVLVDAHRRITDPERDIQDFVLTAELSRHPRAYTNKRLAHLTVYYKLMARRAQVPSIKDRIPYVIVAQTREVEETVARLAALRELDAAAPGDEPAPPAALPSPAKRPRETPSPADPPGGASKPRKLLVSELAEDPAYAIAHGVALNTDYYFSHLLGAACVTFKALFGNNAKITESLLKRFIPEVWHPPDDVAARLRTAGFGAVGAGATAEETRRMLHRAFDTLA

SMILES: COc1cc(C(O)CN(C)Cc2ccc3c(c2)c(=O)c(C(=O)NCc2ccc(Cl)cc2)cn3C)ccc1O (centres unmarked) [Example 77, N-(4-Chlorobenzyl)-6-([(2-hydroxy-2-[4-hydroxy-3-methoxyphenyl]ethyl)[methyl]amino]methyl)-1-methyl-4-oxo-1,4-dihydro-3-quinolinecarboxamide]
IC50 (HSV polymerase): 4100 nM
IC50 (HCMV polymerase; [1]): 1300 nM
IC50 (VZV polymerase): 2100 nM

SMILES: Cn1cc(C(=O)NCc2ccc(Cl)cc2)c(=O)c2cc(C#CCO)ccc21 [Example 31, N-(4-Chlorobenzyl)-6-(3-hydroxy-1-propynyl)-1-methyl-4-oxo-1,4-dihydro-3-quinolinecarboxamide]
IC50 (HSV polymerase): 1300 nM
IC50 (HCMV polymerase; [1]): 1100 nM
IC50 (VZV polymerase): 1000 nM

SMILES: CCN(CC)CCn1cc(C(=O)NCc2ccc(Cl)cc2)c(=O)c2cc(C#CCO)ccc21 [Example 12, N-(4-Chlorobenzyl)-1-[2-(diethylamino)ethyl]-6-(3-hydroxy-1-propynyl)-4-oxo-1,4-dihydro-3-quinolinecarboxamide]
IC50 (HSV polymerase): 3000 nM
IC50 (HCMV polymerase; [1]): 2000 nM
IC50 (VZV polymerase): 1900 nM

SMILES: C[S+]([O-])CCCn1cc(C(=O)NCc2ccc(Cl)cc2)c(=O)c2cc(CN3CCOCC3)ccc21 (centres unmarked) [Example 65, N-(4-Chlorobenzyl)-1-[3-(methylsulfinyl)propyl]-6-(4-morpholinylmethyl)-4-oxo-1,4-dihydro-3-quinolinecarboxamide]
IC50 (HSV polymerase): 1000 nM
IC50 (HCMV polymerase; [1]): 900 nM
IC50 (VZV polymerase): 630 nM

SMILES: O=C(NCc1ccc(Cl)cc1)c1cn(CCOCCO)c2ccc(C#CCO)cc2c1=O [Example 55, N-(4-Chlorobenzyl)-1-[2-(2-hydroxyethoxy)ethyl]-6-(3-hydroxy-1-propynyl)-4-oxo-1,4-dihydro-3-quinolinecarboxamide]
IC50 (HSV polymerase): 2400 nM
IC50 (HCMV polymerase; [1]): 2300 nM
IC50 (VZV polymerase): 1400 nM

SMILES: Cn1cc(C(=O)NCc2ccc(Cl)cc2)c(=O)c2cc(CCCO)cc(OCCO)c21 [Example 4]
IC50 (HSV polymerase): 1000 nM
IC50 (HCMV polymerase; [1]): 600 nM
IC50 (VZV polymerase): 1200 nM

SMILES: O=C(NCc1ccc(Cl)cc1)c1cn(CCN2CCCCC2)c2ccc(C#CCO)cc2c1=O [Example 14, N-(4-Chlorobenzyl)-6-(3-hydroxy-1-propynyl)-1-[2-(1-piperidinyl)ethyl]-4-oxo-1,4-dihydro-3-quinolinecarboxamide]
IC50 (HSV polymerase): 1200 nM
IC50 (HCMV polymerase): 1300 nM
IC50 (VZV polymerase): 1100 nM

SMILES: O=C(NCc1ccc(Cl)cc1)c1cn(CCN2CCOCC2)c2ccc(C=CCO)cc2c1=O [Example 7, N-(4-Chlorobenzyl)-6-(3-hydroxy-1-propenyl)-1-[2-(4-morpholinyl)ethyl]-4-oxo-1,4-dihydro 3-quinolinecarboxamide]
IC50 (HSV polymerase): 1100 nM
IC50 (HCMV polymerase): 1000 nM
IC50 (VZV polymerase): 770 nM

SMILES: O=C(NCc1ccc(Cl)cc1)c1cn(C2CC2)c2ccc(CCCO)cc2c1=O [Example 26, N-(4-Chlorobenzyl)-1-cyclopropyl-6-(3-hydroxypropyl)-4-oxo-1,4-dihydro-3-quinolinecarboxamide]
IC50 (HSV polymerase): 780 nM
IC50 (HCMV polymerase; [1]): 530 nM
IC50 (VZV polymerase): 490 nM

SMILES: CCSCCn1cc(C(=O)NCc2ccc(Cl)cc2)c(=O)c2cc(CN3CCOCC3)ccc21 [Example 60, N-(4-Chlorobenzyl)-1-[2-(ethylsulfanyl)ethyl]-6-(4-morpholinylmethyl)-4-oxo-1,4-dihydro-3-quinolinecarboxamide]
IC50 (HCMV polymerase; [1]): 1100 nM

SMILES: CN(C)n1cc(C(=O)NCc2ccc(Cl)cc2)c(=O)c2cc(CN3CCOCC3)ccc21 [Example 117, N-(4-Chlorobenzyl)-1-(dimethylamino)-6-(4-morpholinylmethyl)-4-oxo-1,4-dihydro-3-quinolinecarboxamide]
IC50 (HCMV polymerase; [1]): 1500 nM

SMILES: CC(C)n1cc(C(=O)NCc2ccc(Cl)cc2)c(=O)c2cc(C#CCO)ccc21 [Example 1, N-(4-Chlorobenzyl)-6-(3-hydroxy-1-propynyl)-1-isopropyl-4-oxo-1,4-dihydro-3-quinolinecarboxamide]
IC50 (HCMV polymerase; [1]): 1700 nM

SMILES: C#CCn1cc(C(=O)NCc2ccc(Cl)cc2)c(=O)c2cc(CN3CCOCC3)ccc21 [Example 59, N-(4-Chlorobenzyl)-6-(4-morpholinylmethyl)-4-oxo-1-(2-propynyl)-1,4-dihydro-3-quinolinecarboxamide]
IC50 (HCMV polymerase; [1]): 1900 nM

SMILES: CN(CCS(=O)(=O)O)C(=O)CCCCCCC(=O)OCCCc1ccc2c(c1)c(=O)c(C(=O)NCc1ccc(Cl)cc1)cn2C1CC1
IC50 (HCMV polymerase; [1]): > 20000 nM

SMILES: O=C(NCc1ccc(Cl)cc1)c1cn(COCCO)c2ccc(CN3CCOCC3)cc2c1=O [Example 107]
IC50 (HCMV polymerase; [1]): 840 nM

SMILES: CN1CCCC1CCn1cc(C(=O)NCc2ccc(Cl)cc2)c(=O)c2cc(C#CCO)ccc21 (centres unmarked) [Example 16, N-(4-Chlorobenzyl)-1,4-dihydro-6-(3-hydroxy-1-propynyl)-1-[2-(1-methyl-2-pyrrolindinyl)ethyl]-4-oxo3-quinolinecarboxamide]
IC50 (HCMV polymerase): 2800 nM

Next, values leading:

IC50 (HSV polymerase): 1100 nM
IC50 (HCMV polymerase; [1]): 1300 nM
IC50 (VZV polymerase): 610 nM
SMILES: O=C(NCc1ccc(Cl)cc1)c1cn(CC#CCO)c2ccc(CN3CCOCC3)cc2c1=O [Example 62, N-(4-Chlorobenzyl)-1-(4-hydroxy-2-butynyl)-6-(4-morpholinylmethyl)-4-oxo-1,4-dihydro-3-quinolinecarboxamide]

IC50 (HSV polymerase): 4400 nM
IC50 (HCMV polymerase; [1]): 3300 nM
IC50 (VZV polymerase): 4000 nM
SMILES: Cn1cc(C(=O)NCc2ccc(Cl)cc2)c(=O)c2cc(CN3CC(O)C3)ccc21 [Example 75, N-(4-Chlorobenzyl)-6-[(3-hydroxy-1-azetidinyl)methyl]-1-methyl-4-oxo-1,4-dihydro-3-quinolinecarboxamide]

IC50 (HSV polymerase): 2000 nM
IC50 (HCMV polymerase; [1]): 800 nM
IC50 (VZV polymerase): 1100 nM
SMILES: CC(C)N(CCn1cc(C(=O)NCc2ccc(Cl)cc2)c(=O)c2cc(C#CCO)ccc21)C(C)C [Example 17, N-(4-Chlorobenzyl)-1-[2-(diisopropylamino)ethyl]-6-(3-hydroxy-1-propynyl)-4-oxo-1,4-dihydro-3-quinolinecarboxamide]

IC50 (HSV polymerase): 2800 nM
IC50 (HCMV polymerase; [1]): 890 nM
IC50 (VZV polymerase): 1600 nM
SMILES: CN(Cc1ccc2c(c1)c(=O)c(C(=O)NCc1ccc(Cl)cc1)cn2C)CC(O)c1ccc(O)cc1 (centres unmarked) [Example 74, N-(4-Chlorobenzyl)-6-([(2-hydroxy-2-[4-hydroxyphenyl]-ethyl) [methyl]amino]methyl)-1-methyl-4-oxo-1,4-dihydro-3-quinolinecarboxamide]

IC50 (HSV polymerase): < 310 nM
IC50 (HCMV polymerase; [1]): 180 nM
IC50 (VZV polymerase): < 310 nM
SMILES: O=C(NCc1ccc(Cl)cc1)c1cn(CSc2ccccc2)c2ccc(CN3CCOCC3)cc2c1=O [Example 76, N-(4-Chlorobenzyl)-6-(morpholinylmethyl)-4-oxo-1-[(phenylsulfanyl)methyl]-1,4-dihydro-3-quinolinecarboxamide]

IC50 (HSV polymerase): 900 nM
IC50 (HCMV polymerase; [1]): 1100 nM
IC50 (VZV polymerase): 500 nM
SMILES: CSCCCn1cc(C(=O)NCc2ccc(Cl)cc2)c(=O)c2cc(CN3CCOCC3)ccc21 [Example 61, N-(4-Chlorobenzyl)-1-[3-(methylsulfanyl)propyl]-6-(4-morpholinylmethyl)-4-oxo-1,4-dihydro-3-quinolinecarboxamide]

IC50 (HCMV polymerase; [1]): 11700 nM
SMILES: Cn1cc(C(=O)NCc2ccc(Cl)cc2)c(=O)c2cc(CN3CC=C(F)CC3)ccc21 [Example 53, N-(4-Chlorobenzyl)-6-((4-fluoro-3,6-dihydro-1(2H)-pyridinyl)methyl)-1-methyl-4-oxo-1,4-dihydro-3-quinolinecarboxamide]

IC50 (HCMV polymerase; [1]): 8200 nM
SMILES: COn1cc(C(=O)NCc2ccc(Cl)cc2)c(=O)c2ccccc21 [Example 123, N-(4-Chlorobenzyl)-1-methoxy-4-oxo-1,4-dihydro-3-quinolinecarboxamide]

IC50 (HCMV polymerase; [1]): 420 nM
SMILES: O=C(NCc1ccc(Cl)cc1)c1cn(N2CCOCC2)c2ccc(CN3CCOCC3)cc2c1=O [Example 112, N-(4-Chlorobenzyl)-1-(4-morpholinyl)-6-(4-morpholinylmethyl)-4-oxo-1,4-dihydro-3-quinolinecarboxamide]

IC50 (HSV polymerase): 1600 nM
IC50 (HCMV polymerase; [1]): 1600 nM
IC50 (VZV polymerase): 1500 nM
SMILES: O=C(NCc1ccc(Cl)cc1)c1cn(C2CC2)c2ccc(C#CCO)cc2c1=O [Example 25, N-(4-Chlorobenzyl)-1-cyclopropyl-6-(3-hydroxy-1-propynyl)-4-oxo-1,4-dihydro-3-quinolinecarboxamide]

IC50 (HCMV polymerase; [1]): 13600 nM
SMILES: Cn1cc(C(=O)NCc2ccc(Cl)cc2)c(=O)c2cc(CN3C[C@@H]4C[C@H]3CO4)ccc21 [Example 48, N-(4-Chlorobenzyl)-1-methyl-6-(2-oxa-5-azabicyclo(2.2. 1]-hept-5-ylmethyl)-4-oxo-1,4-dihydro-3-quinolinecarboxamide]

IC50 (HCMV polymerase; [1]): 820 nM
SMILES: O=C(NCc1ccc(Cl)cc1)c1cn(C2CCOCC2)c2ccc(CN3CCOCC3)cc2c1=O [Example 108, N-(4-Chlorobenzyl)-6-(4-morpholinylmethyl)-4-oxo-1-tetrahydro-2H-pyran-4-yl-1,4-dihydro-3-quinolinecarboxamide]

IC50 (HCMV polymerase; [1]): 3900 nM
SMILES: CN(C)n1cc(C(=O)NCc2ccc(Cl)cc2)c(=O)c2ccccc21 [Example 121, N-(4-Chlorobenzyl)-1-(dimethylamino)-4-oxo-1,4-dihydro-3-quinolinecarboxamide]

IC50 (HCMV polymerase; [1]): 1400 nM
SMILES: C=Cn1cc(C(=O)NCc2ccc(Cl)cc2)c(=O)c2cc(C#CCO)ccc21 [Example 21, N-(4-Chlorobenzyl)-6-(3-hydroxy-1-propynyl)-4-oxo-1-vinyl-1,4-dihydro-3-quinolinecarboxamide]
